ChEMBL document CHEMBL1201862, “PubChem BioAssay data set” (2004)
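1) Cells in 96-well plates. 2) Compound, 48 h, 5 concentrations. 3) Linear interpolation between surrounding doses. 4) Unreached endpoint = highest concentration. Abbreviation: GI50, concentration required for 50% inhibition of growth.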 Calls of active or inactive are those of the source. Cut-off read from the data, not from the text of the source: active = GI50 up to about 1.1 µM and inactive = higher.

Key:
Assay in all cases: NCI anticancer screen, dose series, 48 h
Hs-578T = test system: Hs-578T
CCRF-CEM = test system: CCRF-CEM
SW-620 = test system: SW-620
SK-OV-3 = test system: SK-OV-3
SK-MEL-5 = test system: SK-MEL-5
A498 = test system: A498
COLO 205 = test system: COLO 205
RXF 393 = test system: RXF 393
HCT-15 = test system: HCT-15
HOP-62 = test system: HOP-62
UACC-62 = test system: UACC-62
UO-31 = test system: UO-31
Malme-3M = test system: Malme-3M
EKVX = test system: EKVX
MDA-MB-435 = test system: MDA-MB-435
786-0 = test system: 786-0
SNB-19 = test system: SNB-19
OVCAR-5 = test system: OVCAR-5
OVCAR-4 = test system: OVCAR-4
CAKI-1 = test system: CAKI-1

Row | SMILES | GI50 (Hs-578T) | GI50 (CCRF-CEM) | GI50 (SW-620) | GI50 (SK-OV-3) | GI50 (SK-MEL-5) | GI50 (A498) | GI50 (COLO 205) | GI50 (RXF 393) | GI50 (HCT-15) | GI50 (HOP-62) | GI50 (UACC-62) | GI50 (UO-31) | GI50 (Malme-3M) | GI50 (EKVX) | GI50 (MDA-MB-435) | GI50 (786-0) | GI50 (SNB-19) | GI50 (OVCAR-5) | GI50 (OVCAR-4) | GI50 (CAKI-1)
1 | CCCC(=O)NC1CCc2cc(OC)c(OC)c(OC)c2-c2ccc(OC)c(=O)cc21 (centres undefined) | 0.000237 µM (active) | 0.00028 µM (active) | 0.000481 µM (active) | 0.00454 µM (active) | 0.000356 µM (active) | 0.00807 µM (active) | 0.000235 µM (active) | 0.01 µM (active) | 0.00637 µM | 0.000679 µM (active) | 0.000303 µM (active) | 0.0813 µM (active) | 0.000764 µM (active) | 0.000577 µM (active) | 0.000296 µM (active) | 0.000652 µM (active) | 0.000519 µM (active) | 0.00312 µM (active) |  | 
2 | O=c1oc2ccccc2cc1-c1cc2ccccn2c1 | > 100 µM (inactive) | > 100 µM (inactive) | > 100 µM (inactive) | > 100 µM (inactive) | > 100 µM (inactive) | > 100 µM (inactive) | > 100 µM (inactive) | > 100 µM (inactive) | > 100 µM | > 100 µM (inactive) | > 100 µM (inactive) | > 100 µM (inactive) |  | > 100 µM (inactive) | > 100 µM (inactive) | > 100 µM (inactive) | > 100 µM (inactive) | > 100 µM (inactive) | > 100 µM (inactive) | > 100 µM (inactive)
3 | CC(=O)Nc1ccc2c(C)c3c4ccccc4n(C)c3nc2n1 | 16.3 µM (inactive) | 18.7 µM (inactive) | 13.2 µM (inactive) |  | 9.29 µM (inactive) | 18.1 µM (inactive) | 12.7 µM (inactive) | 16.1 µM (inactive) | 11.4 µM | 14.3 µM (inactive) | 20.1 µM (inactive) | 11.4 µM (inactive) |  | 29 µM (inactive) | 18.7 µM (inactive) | 8.17 µM (inactive) | 39.1 µM (inactive) | 18.6 µM (inactive) |  | 12.2 µM (inactive)
4 | O=C1CCC(=O)N1CNc1ccc2c(c1)Sc1ccccc1O2 | 44.7 µM (inactive) | 29 µM (inactive) | 27.9 µM (inactive) |  | 26.4 µM (inactive) | 53 µM (inactive) | 18 µM (inactive) | 22.5 µM (inactive) | 28.4 µM | 43.7 µM (inactive) | 48.9 µM (inactive) | 23.2 µM (inactive) | 58.6 µM (inactive) | 22 µM (inactive) | 31.9 µM (inactive) | 23.6 µM (inactive) | 67.3 µM (inactive) | 43.9 µM (inactive) | 33.7 µM (inactive) | 32.7 µM (inactive)
5 | Cc1cc(Cl)cc2c1NC(=O)/C2=N\Nc1ccccc1[N+](=O)[O-] | 35.3 µM (inactive) | 21.1 µM (inactive) | > 100 µM (inactive) | > 100 µM (inactive) | > 100 µM (inactive) | > 100 µM (inactive) | > 100 µM (inactive) | > 100 µM (inactive) | > 100 µM | 50.5 µM (inactive) | > 100 µM (inactive) | > 100 µM (inactive) |  | > 100 µM (inactive) | > 100 µM (inactive) | 54.6 µM (inactive) | > 100 µM (inactive) | > 100 µM (inactive) | > 100 µM (inactive) | > 100 µM (inactive)
6 | O=C(O)CSCC(=O)Nc1ccc2cccc3c2c1CC3 | > 100 µM (inactive) | > 100 µM (inactive) | > 100 µM (inactive) |  | > 100 µM (inactive) | > 100 µM (inactive) | > 100 µM (inactive) | > 100 µM (inactive) | > 100 µM | > 100 µM (inactive) | > 100 µM (inactive) | > 100 µM (inactive) | > 100 µM (inactive) | > 100 µM (inactive) | > 100 µM (inactive) | > 100 µM (inactive) | > 100 µM (inactive) | > 100 µM (inactive) | > 100 µM (inactive) | > 100 µM (inactive)
7 | O=c1cn[nH]c(=S)n1/N=C/c1c[nH]c2ccccc12 | > 100 µM (inactive) | 11.3 µM (inactive) | 45.3 µM (inactive) | > 100 µM (inactive) | > 100 µM (inactive) | > 100 µM (inactive) | > 100 µM (inactive) |  | 31.4 µM | 49.3 µM (inactive) | 78.7 µM (inactive) | > 100 µM (inactive) | > 100 µM (inactive) | > 100 µM (inactive) | 58.5 µM (inactive) | > 100 µM (inactive) | > 100 µM (inactive) | > 100 µM (inactive) | 88.1 µM (inactive) | > 100 µM (inactive)
8 | O=C1NC(=O)C(C(c2ccc(Cl)cc2)C2C(=O)NC(=O)NC2=O)C(=O)N1.c1ccncc1 | > 100 µM (inactive) | > 100 µM (inactive) | > 100 µM (inactive) |  | > 100 µM (inactive) | > 100 µM (inactive) | > 100 µM (inactive) | 58.9 µM (inactive) | > 100 µM | > 100 µM (inactive) | > 100 µM (inactive) | > 100 µM (inactive) | > 100 µM (inactive) | > 100 µM (inactive) | > 100 µM (inactive) | > 100 µM (inactive) | > 100 µM (inactive) | > 100 µM (inactive) | > 100 µM (inactive) | > 100 µM (inactive)
9 | O=c1[nH]nc(-c2ccc3ccccc3c2)[nH]1 | 2.81 µM (inactive) | > 100 µM (inactive) | > 100 µM (inactive) |  |  | 80 µM (inactive) | > 100 µM (inactive) | > 100 µM (inactive) | > 100 µM | > 100 µM (inactive) | 21 µM (inactive) | 43.3 µM (inactive) | > 100 µM (inactive) | 0.282 µM (active) | > 100 µM (inactive) | > 100 µM (inactive) | > 100 µM (inactive) | > 100 µM (inactive) | > 100 µM (inactive) | > 100 µM (inactive)
10 | CCOC(=O)C(O)(NC(=O)Nc1ccc(F)cc1)C(F)(F)F (centres undefined) | > 100 µM (inactive) | > 100 µM (inactive) | > 100 µM (inactive) | > 100 µM (inactive) | > 100 µM (inactive) | > 100 µM (inactive) | > 100 µM (inactive) | > 100 µM (inactive) | > 100 µM |  |  | > 100 µM (inactive) |  | > 100 µM (inactive) | > 100 µM (inactive) | > 100 µM (inactive) | > 100 µM (inactive) | > 100 µM (inactive) |  | 38.8 µM (inactive)
11 | COc1cc(-c2oc(/C=N/c3ccccc3)c([N+](=O)[O-])c2-c2ccc(O)c(OC)c2)ccc1O | 39.6 µM (inactive) | 6.31 µM (inactive) | 22.9 µM (inactive) | > 41.8 µM (inactive) | 23.7 µM (inactive) |  | 20.3 µM (inactive) | 22.8 µM (inactive) | 14.4 µM | 33.8 µM (inactive) | 17.9 µM (inactive) | 15.1 µM (inactive) |  | 25.8 µM (inactive) | 23.6 µM (inactive) | 20.6 µM (inactive) | 22.4 µM (inactive) | 35.5 µM (inactive) | 19.1 µM (inactive) | 21.8 µM (inactive)
12 | CCNC(=S)N/N=C(\C)c1cccc(C)n1 | > 100 µM (inactive) | 0.351 µM (active) | 18.6 µM (inactive) | 13.1 µM (inactive) | 4.52 µM (inactive) | 13.5 µM (inactive) | 0.748 µM (active) | 45.3 µM (inactive) | 7.18 µM | 29.7 µM (inactive) | 15.4 µM (inactive) | 3.71 µM (inactive) | 2.39 µM (inactive) | 2.04 µM (inactive) | 20.5 µM (inactive) | 12.8 µM (inactive) | 30.3 µM (inactive) | 9.31 µM (inactive) |  | 
13 | Cc1ccccc1NC(=O)/C(C#N)=N\Nc1[nH]cnc1C(N)=O | 24.3 µM (inactive) | 2.96 µM (inactive) | 2.89 µM (inactive) | 1.59 µM (inactive) | 35.3 µM (inactive) |  | 21.9 µM (inactive) | 15.3 µM (inactive) | 19.3 µM | 6.12 µM (inactive) | 12.9 µM (inactive) | 1.62 µM (inactive) | 4.62 µM (inactive) | 66.8 µM (inactive) | 4.68 µM (inactive) | 19.3 µM (inactive) | > 100 µM (inactive) | 40.3 µM (inactive) | 34.1 µM (inactive) | 2.59 µM (inactive)
14 | O=c1[nH]nc(Cc2ccccc2)n1/N=C/c1ccc(/C=N/n2c(Cc3ccccc3)n[nH]c2=O)cc1 | > 100 µM (inactive) | 23.8 µM (inactive) | > 100 µM (inactive) |  | > 100 µM (inactive) | > 100 µM (inactive) | > 100 µM (inactive) | 35.3 µM (inactive) | > 100 µM | 57.5 µM (inactive) | > 100 µM (inactive) | > 100 µM (inactive) | > 100 µM (inactive) | > 100 µM (inactive) | > 100 µM (inactive) | > 100 µM (inactive) | > 100 µM (inactive) | > 100 µM (inactive) | > 100 µM (inactive) | > 100 µM (inactive)
15 | CCOC(=O)C(=CNC(=S)N/N=C1\C(=O)Nc2ccccc21)C(=O)OCC | 48.2 µM (inactive) | 41.9 µM (inactive) | > 100 µM (inactive) | > 100 µM (inactive) | 90.8 µM (inactive) | 41.9 µM (inactive) | 99.1 µM (inactive) | > 100 µM (inactive) |  | > 100 µM (inactive) | > 100 µM (inactive) | 29 µM (inactive) |  |  | > 100 µM (inactive) | > 100 µM (inactive) | > 100 µM (inactive) | > 100 µM (inactive) | > 100 µM (inactive) | 21.1 µM (inactive)
